Assay results from EP0641363B1, “DETERGENT COMPOSITIONS CONTAINING COPOLYMERS” (UNILEVER PLC, priority 1992, dated 1993).

Test: Calcium binding: titration with calcium chloride solution using a calcium-ion-selective electrode; binding constant calculated by the method of Tanford
Experimental: The calcium binding properties of the polymers were measured by titration of the samples with a calcium chloride solution using a calcium-ion-selective electrode of the type Radiometer (Trade Mark) F2112Ca. The calcium binding constant pKCa2+ was calculated by the method of C Tanford in Chapter 8, Multiple Equilibria, Physical Chemistry of Macromolecules, John Wiley, New York, 1961.
Values of pKCa2+ of 4.0 or above represent materials likely to be useful as detergency builders, either alone or in conjunction with other builder materials. The value for sodium tripolyphosphate is 6.0, and any figure higher than this indicates excellent building.

SMILES: O=P(O)(O)OP(=O)(O)OP(=O)(O)O [sodium tripolyphosphate]
- pKCa2+: 6.0
